Assay results published in patent publication US9458113B2 (Boehringer Ingelheim International GmbH, priority 2014, dated 2016).

What follows are compounds tested against Human neutrophil elastase (Homo sapiens (Human), UniProt P08246) (assay: Human Neutrophil Elastase Assay). Details: substrate MeOSuc-Ala-Ala-Pro-Val-AMC 250 μM, pH 7.5.
Format: biochemical

Sequence of Human neutrophil elastase (P08246 30-247): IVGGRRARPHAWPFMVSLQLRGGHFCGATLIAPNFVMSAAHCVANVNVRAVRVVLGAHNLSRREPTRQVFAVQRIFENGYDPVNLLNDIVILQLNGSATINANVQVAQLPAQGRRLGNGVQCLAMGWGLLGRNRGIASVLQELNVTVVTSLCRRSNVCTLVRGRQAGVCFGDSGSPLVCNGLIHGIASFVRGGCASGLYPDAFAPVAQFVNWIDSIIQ

IC50 [nM]	SMILES
4.1	CN1C(=O)N(c2cccc(C(F)(F)F)c2)C2=C(C(=O)CC2)C1c1ccc(C#N)cc1C(=O)NCc1ccncc1 (stereo not drawn) [Example 1.48]
< 1	CN1C(=O)N(c2cccc(C(F)(F)F)c2)C2=C(C(=O)CC2)C1c1ccc(C#N)cc1-c1ccc(=O)n(C)c1 (stereo not drawn) [Example 11.16]
9.8	CN1C(=O)N(c2cccc(C(F)(F)F)c2)C2=C(C(=O)CC2)C1c1ccc(C#N)cc1C(=O)N1CCc2nocc2C1 (stereo not drawn) [Example 1.69]
10.6	CN1C(=O)N(c2ccnc(C(F)(F)F)c2)C2=C(C(=O)CC2)C1c1ccc(C#N)cc1-c1ccn(C)c(=O)c1 (stereo not drawn) [Example 17.3]
2.9	CN1C(=O)N(c2cccc(C(F)(F)F)c2)C2=C(C(=O)CC2)C1c1ccc(C#N)cc1C(=O)NCc1cccnn1 (stereo not drawn) [Example 1.50]
4.3	CN1C(=O)N(c2cccc(C(F)(F)F)c2)C2=C(C(=O)CC2)C1c1ccc(C#N)cc1C(=O)NC1CCS(=O)(=O)C1 (stereo not drawn) [Example 1.28]
3.4	CN1C(=O)N(c2cccc(C(F)(F)F)c2)C2=C(C(=O)CC2)C1c1ccc(C#N)cc1C(=O)NC(C)(C)C#N (stereo not drawn) [Example 5, 5-Cyano-N-(cyano-dimethyl-methyl)-2-[3-methyl-2,5-dioxo-1-(3-trifluoromethyl-phenyl)-2,3,4,5,6,7-hexahydro-1H-cyclopentapyrimidin-4-yl]-benzamide]
< 1	CN1C(=O)N(c2cccc(C(F)(F)F)c2)C2=C(C(=O)CC2)C1c1ccc(C#N)cc1C1=CCNCC1 (stereo not drawn) [Example 14.2]
2.9	CN1C(=O)N(c2cccc(C(F)(F)F)c2)C2=C(C(=O)CC2)[C@H]1c1ccc(C#N)cc1C(=O)N1CCOCC1 [Example 2.3]
3.1	CN1C(=O)N(c2cccc(C(F)(F)F)c2)C2=C(C(=O)CC2)C1c1ccc(C#N)cc1C(=O)NCCN (stereo not drawn) [Example 4.3]
3.2	CN1C(=O)N(c2cccc(C(F)(F)F)c2)C2=C(C(=O)CCC2)C1c1ccc(C#N)cc1-c1ccoc1 (stereo not drawn) [Example 15, 3-Furan-3-yl-4-[3-methyl-2,5-dioxo-1-(3-trifluoromethyl-phenyl)-1,2,3,4,5,6,7,8-octahydro-quinazolin-4-yl]-benzonitrile]
6.3	CN1C(=O)N(c2cccc(C(F)(F)F)c2)C2=C(C(=O)CC2)C1c1ccc(C#N)cc1C(=O)NC1CC1 (stereo not drawn) [Example 1.6]
< 1	CN(Cc1nccn1C)C(=O)c1cc(C#N)ccc1C1C2=C(CCC2=O)N(c2cccc(C(F)(F)F)c2)C(=O)N1C (stereo not drawn) [Example 1.74]
7.1	CN1C(=O)N(c2cccc(C(F)(F)F)c2)C2=C(C(=O)CC2)C1c1ccc(C#N)cc1C(=O)NCC(F)(F)F (stereo not drawn) [Example 1.21]
6.2	CN1C(=O)N(c2cccc(C(F)(F)F)c2)C2=C(C(=O)CC2)C1c1ccc(C#N)cc1C(=O)NCC(C)(C)N (stereo not drawn) [Example 4.11]
< 1	CN(Cc1ccnn1C)C(=O)c1cc(C#N)ccc1C1C2=C(CCC2=O)N(c2cccc(C(F)(F)F)c2)C(=O)N1C (stereo not drawn) [Example 1.71]
5.4	CN(C)C(=O)c1cc(C#N)ccc1C1C2=C(CCC2=O)N(c2cccc(C(F)(F)F)c2)C(=O)N1C (stereo not drawn) [Example 1.3]
3.1	CN1C(=O)N(c2cccc(C(F)(F)F)c2)C2=C(C(=O)CC2)C1c1ccc(C#N)cc1C(=O)NCC#N (stereo not drawn) [Example 1.5]
5.3	CN1C(=O)N(c2cccc(C(F)(F)F)c2)C2=C(C(=O)CC2)C1c1ccc(C#N)cc1C(=O)NC1COC1 (stereo not drawn) [Example 1.12]
1.2	CN1C(=O)N(c2cccc(C(F)(F)F)c2)C2=C(C(=O)CC2)C1c1ccc(C#N)cc1-c1ccn(C)c(=O)c1 (stereo not drawn) [Example 11.7]

IC50 [nM]	SMILES
1.1	CN(Cc1ccon1)C(=O)c1cc(C#N)ccc1C1C2=C(CCC2=O)N(c2cccc(C(F)(F)F)c2)C(=O)N1C (stereo not drawn) [Example 1.59]
6.4	CN1C(=O)N(c2cccc(C(F)(F)F)c2)C2=C(C(=O)CC2)C1c1ccc(C#N)cc1C(=O)N[C@@H]1CCNC1 (stereo partly drawn) [Example 4.9]
1.9	CN1C(=O)N(c2cccc(C(F)(F)F)c2)C2=C(C(=O)CC2)C1c1ccc(C#N)cc1C(=O)NCc1cnoc1 (stereo not drawn) [Example 1.42]
6.5	COCCNC(=O)c1cc(C#N)ccc1C1C2=C(CCC2=O)N(c2cccc(C(F)(F)F)c2)C(=O)N1C (stereo not drawn) [Example 1.14]
3.3	CN1C(=O)N(c2cccc(C(F)(F)F)c2)C2=C(C(=O)CC2)C1c1ccc(C#N)cc1C(=O)N1CC[C@H](N)C1 (stereo partly drawn) [Example 4.7]
2.4	CN1C(=O)N(c2cccc(C(F)(F)F)c2)C2=C(C(=O)CCC2)C1c1ccc(C#N)cc1-c1cnn(C)c1 (stereo not drawn) [Example 15.2]
6.9	CN1C(=O)N(c2cccc(C(F)(F)F)c2)C2=C(C(=O)CC2)C1c1ccc(C#N)cc1C(=O)NCc1cn(C)cn1 (stereo not drawn) [Example 1.54]
5.3	CN1C(=O)N(c2cccc(C(F)(F)F)c2)C2=C(C(=O)CC2)C1c1ccc(C#N)cc1C(N)=O (stereo not drawn) [Example 1, 5-Cyano-2-[3-methyl-2,5-dioxo-1-(3-trifluoromethyl-phenyl)-2,3,4,5,6,7-hexahydro-1H-cyclopentapyrimidin-4-yl]-benzamide]
1.4	CNCCN(C)C(=O)c1cc(C#N)ccc1C1C2=C(CCC2=O)N(c2cccc(C(F)(F)F)c2)C(=O)N1C (stereo not drawn) [Example 4.10]
1	CN1C(=O)N(c2cccc(C(F)(F)F)c2)C2=C(C(=O)CC2)C1c1ccc(C#N)cc1C(=O)NCc1cnco1 (stereo not drawn) [Example 1.40]
7.3	CC(C)N1CCN(C(=O)c2cc(C#N)ccc2C2C3=C(CCC3=O)N(c3cccc(C(F)(F)F)c3)C(=O)N2C)CC1 (stereo not drawn) [Example 3.4]
7	CN1C(=O)N(c2cccc(C(F)(F)F)c2)C2=C(C(=O)CC2)C1c1ccc(C#N)cc1C(=O)N1C[C@H]2C[C@@H]1C[N+]2(C)C (stereo partly drawn) [Example 3.5]
7.3	CN1C(=O)N(c2cccc(C(F)(F)F)c2)C2=C(C(=O)CC2)C1c1ccc(C#N)cc1C(=O)N1C[C@H]2C[C@@H]1CN2 (stereo partly drawn) [Example 4.15]
10.7	CN1C(=O)N(c2cccc(C(F)(F)F)c2)C2=C(C(=O)CCC2)C1c1ccc(C#N)cc1C1=CCN(C(=O)OC(C)(C)C)C1 (stereo not drawn) [Example 15.6]
5.5	CCNC(=O)c1cc(C#N)ccc1C1C2=C(CCC2=O)N(c2cccc(C(F)(F)F)c2)C(=O)N1C (stereo not drawn) [Example 1.2]
1.3	CC(=O)N[C@@H]1CCN(C(=O)c2cc(C#N)ccc2C2C3=C(CCC3=O)N(c3cccc(C(F)(F)F)c3)C(=O)N2C)C1 (stereo partly drawn) [Example 1.84]
< 1	CN(Cc1ccno1)C(=O)c1cc(C#N)ccc1C1C2=C(CCC2=O)N(c2cccc(C(F)(F)F)c2)C(=O)N1C (stereo not drawn) [Example 1.60]
4.7	CNCCNC(=O)c1cc(C#N)ccc1C1C2=C(CCC2=O)N(c2cccc(C(F)(F)F)c2)C(=O)N1C (stereo not drawn) [Example 4.4]
1.6	CN1C(=O)N(c2cccc(C(F)(F)F)c2)C2=C(C(=O)CCC2)C1c1ccc(C#N)cc1-c1cn[nH]c1 (stereo not drawn) [Example 15.4]
3.8	CN1C(=O)N(c2cccc(C(F)(F)F)c2)C2=C(C(=O)CC2)C1c1ccc(C#N)cc1C(=O)NCc1ncco1 (stereo not drawn) [Example 1.41]

IC50 [nM]	SMILES
3.7	C#CCNC(=O)c1cc(C#N)ccc1C1C2=C(CCC2=O)N(c2cccc(C(F)(F)F)c2)C(=O)N1C (stereo not drawn) [Example 1.4]
10.5	CN1C(=O)N(c2cccc(C(F)(F)F)c2)C2=C(C(=O)CC2)C1c1ccc(C#N)cc1C(=O)N1CCN(C2CC2)CC1 (stereo not drawn) [Example 1.33]
< 1	CN(Cc1cnn(C)c1)C(=O)c1cc(C#N)ccc1C1C2=C(CCC2=O)N(c2cccc(C(F)(F)F)c2)C(=O)N1C (stereo not drawn) [Example 1.27]
15.1	CN1C(=O)N(c2cccc(C(F)(F)F)c2)C2=C(C(=O)CC2)C1c1ccc(C#N)cc1C(=O)N1CCC(N)CC1 (stereo not drawn) [Example 4.1]
< 1	CN(Cc1cn[nH]c1)C(=O)c1cc(C#N)ccc1C1C2=C(CCC2=O)N(c2cccc(C(F)(F)F)c2)C(=O)N1C (stereo not drawn) [Example 1.57]
7.4	CN1CCC(NC(=O)c2cc(C#N)ccc2C2C3=C(CCC3=O)N(c3cccc(C(F)(F)F)c3)C(=O)N2C)C1 (stereo not drawn) [Example 1.30]
2.5	CN1C(=O)N(c2cccc(C(F)(F)F)c2)C2=C(C(=O)CC2)C1c1ccc(C#N)cc1C(=O)N1CC(O)C1 (stereo not drawn) [Example 1.11]
5	CN1C(=O)N(c2cccc(C(F)(F)F)c2)C2=C(C(=O)CC2)C1c1ccc(C#N)cc1C(=O)NCc1cn[nH]c1 (stereo not drawn) [Example 1.38]
7.1	CN1C(=O)N(c2cccc(C(F)(F)F)c2)C2=C(C(=O)CC2)C1c1ccc(C#N)cc1C(=O)N1CCn2cncc2C1 (stereo not drawn) [Example 1.66]
2.1	CN1C(=O)N(c2cccc(C(F)(F)F)c2)C2=C(C(=O)CC2)C1c1ccc(C#N)cc1-c1nnco1 (stereo not drawn) [Example 13, 4-[3-Methyl-2,5-dioxo-1-(3-trifluoromethyl-phenyl)-2,3,4,5,6,7-hexahydro-1H-cyclopentapyrimidin-4-yl]-3-[1,3,4]oxadiazol-2-yl-benzonitrile]
< 1	CN1C(=O)N(c2cccc(C(F)(F)F)c2)C2=C(C(=O)CC2)C1c1ccc(C#N)cc1C1=CCCO1 (stereo not drawn) [Example 11.5]
6.6	CC(NC(=O)c1cc(C#N)ccc1C1C2=C(CCC2=O)N(c2cccc(C(F)(F)F)c2)C(=O)N1C)c1ccco1 (stereo not drawn) [Example 1.51]
3.5	CN1C(=O)N(c2cccc(C(F)(F)F)c2)C2=C(C(=O)CCC2)C1c1ccc(C#N)cc1C(=O)N1CCNCC1 (stereo not drawn) [Example 6.3]
5.3	CN1C(=O)N(c2cccc(C(F)(F)F)c2)C2=C(C(=O)CC2)C1c1ccc(C#N)cc1C(=O)NCc1ccccc1 (stereo not drawn) [Example 1.45]
2.2	CC(=O)N[C@H]1CCN(C(=O)c2cc(C#N)ccc2C2C3=C(CCC3=O)N(c3cccc(C(F)(F)F)c3)C(=O)N2C)C1 (stereo partly drawn) [Example 1.83]
8.1	CCN1CCN(C(=O)c2cc(C#N)ccc2C2C3=C(CCC3=O)N(c3cccc(C(F)(F)F)c3)C(=O)N2C)CC1 (stereo not drawn) [Example 3.2]
2	CN(CCN)C(=O)c1cc(C#N)ccc1C1C2=C(CCC2=O)N(c2cccc(C(F)(F)F)c2)C(=O)N1C (stereo not drawn) [Example 4.5]
8	CN1CCC(NC(=O)c2cc(C#N)ccc2C2C3=C(CCC3=O)N(c3cccc(C(F)(F)F)c3)C(=O)N2C)CC1 (stereo not drawn) [Example 1.25]

SMILES	IC50 [nM]
CN1C(=O)N(c2cccc(C(F)(F)F)c2)C2=C(C(=O)CC2)C1c1ccc(C#N)cc1C(=O)NCCO (stereo not drawn) [Example 1.8]	5.7
CN1C(=O)N(c2cccc(C(F)(F)F)c2)C2=C(C(=O)CC2)C1c1ccc(C#N)cc1C(=O)N1CC2COCC(C1)N2 (stereo not drawn) [Example 4.17]	36.2
